Key:
Format in all cases: cell-based
[1] = test system: A2780; assay: MTT cytotoxicity test, A2780; settings: 24 h
Description: (§1) In this test, […] present in the cells converts the soluble tetrazolium salt (3-4,5-dimethylthiazol-2-yl)-2,5-diphenyltetrazolium bromide) into a reduced form. The reaction yields water-insoluble purple crystalline formazan. The number of crystals formed depends on the enzyme activity so that it is directly proportional to the number of viable cells in the sample. Spectrophotometric measurement requires the use of an organic solvent to dissolve the crystals obtained (isopropanol). The change in colour intensity is measured by spectrophotometry at 570 nm wavelength. The test was performed for a number of dilutions (9) of nanoparticle solutions containing the tested anthracycline. The baseline concentration of nanoparticles for MTT tests was 2.5 mg of nanoparticles/ml. […] The study was also performed for drug-free nanoparticles (the carrier itself was obtained similarly to the nanoparticles with the drug). Cells not exposed to toxic substances were used as a control for toxicity studies.
(§2) After reaching 85-90% confluence, the cells were trypsinised using a 0.25% trypsin solution. The cells were then centrifuged (1200 rpm, 5 min.) and suspended in a culture medium suitable for a particular cell line. […] The cells were plated at a concentration of 1000 cells/100 μl of medium per culture well (96-well plates). The prepared plates were incubated (37° C./5% CO2/22 h to 26 h). Subsequently, the culture medium was replaced with a fresh one (100 μl) containing the appropriate concentration of the tested nanoparticles and set aside for 24 h (37° C./5% CO2). After the lapse of the test time, the medium was removed and replaced with 50 μl of an MTT reagent solution at a concentration of 1 mg/ml. The plate was incubated for 2 hours (37° C./5% CO2). Subsequently, the MTT solution was removed, and 100 μl of isopropanol was added. […] The mean value of absorbance read OD570 of the cells not exposed to a toxic agent (control) should be above 0.7 [see literature item 206].
(§3) A decrease in the number of viable cells causes a decrease in metabolic activity in the sample. This reduction directly correlates with the amount of blue and purple formazan formed, monitored basing on the optical density at 570 nm. The following equation (C.1) is used to calculate viability reduction compared to control:
(§4) where: • OD570e is the mean value of the measured absorbance of the test samples; • OD570b is the mean value of the measured absorbance of the control.
(§5) The results obtained were statistically analysed using the Dixon Q test.

[2] = MTT cytotoxicity test, HeLa; settings: human, HeLa cells; for viability at 24 h, 125000 ng/ml NPs (pure drug equimolar): 1.25E+05 ng/ml NPs (pure drug equimolar); for viability at 24 h, 25000 ng/ml NPs (pure drug equimolar): 2.50E+04 ng/ml NPs (pure drug equimolar); for viability at 24 h, 50000 ng/ml NPs (pure drug equimolar): 5.00E+04 ng/ml NPs (pure drug equimolar)
Description: (§6) In this test, […] present in the cells converts the soluble tetrazolium salt (3-4,5-dimethylthiazol-2-yl)-2,5-diphenyltetrazolium bromide) into a reduced form. The reaction yields water-insoluble purple crystalline formazan. The number of crystals formed depends on the enzyme activity so that it is directly proportional to the number of viable cells in the sample. Spectrophotometric measurement requires the use of an organic solvent to dissolve the crystals obtained (isopropanol). The change in colour intensity is measured by spectrophotometry at 570 nm wavelength. The test was performed for a number of dilutions (9) of nanoparticle solutions containing the tested anthracycline. The baseline concentration of nanoparticles for MTT tests was 2.5 mg of nanoparticles/ml. The results were compared to cytotoxicity results obtained for pure drugs with equimolar drug concentration (equal to the concentration encapsulated in nanoparticles). The study was also performed for drug-free nanoparticles (the carrier itself was obtained similarly to the nanoparticles with the drug). Cells not exposed to toxic substances were used as a control for toxicity studies.
(§7) After reaching 85-90% confluence, the cells were trypsinised using a 0.25% trypsin solution. The cells were then centrifuged (1200 rpm, 5 min.) and suspended in a culture medium suitable for a particular cell line. […] The cells were plated at a concentration of 1000 cells/100 μl of medium per culture well (96-well plates). The prepared plates were incubated (37° C./5% CO2/22 h to 26 h). Subsequently, the culture medium was replaced with a fresh one (100 μl) containing the appropriate concentration of the tested nanoparticles and set aside for 24 h (37° C./5% CO2). After the lapse of the test time, the medium was removed and replaced with 50 μl of an MTT reagent solution at a concentration of 1 mg/ml. The plate was incubated for 2 hours (37° C./5% CO2). Subsequently, the MTT solution was removed, and 100 μl of isopropanol was added. After shaking the plate on the shaker for 2 minutes, the results for 570 nm wavelength were read (reference value of 650 nm). The mean value of absorbance read OD570 of the cells not exposed to a toxic agent (control) should be above 0.7 [see literature item 206].
as §3, §4, §5

[3] = test system: HeLa cell line; assay: MTT cytotoxicity test, HeLa; settings: 24 h
Description: as §6, §7, §3, §4, §5

[4] = test system: ACHN; assay: MTT cytotoxicity test, ACHN; settings: 24 h
Description: as §1, §2, §3, §4, §5

[5] = test system: A549; assay: MTT cytotoxicity test, A549; settings: 24 h
Description: as §1, §2, §3, §4, §5

[6] = test system: MCF-7; assay: MTT cytotoxicity test, MCF-7; settings: 24 h
Description: as §1, §2, §3, §4, §5

[7] = A2780, 1.25E+04 ng/ml NPs (pure drug equimolar)
[8] = A2780, 1.25E+05 ng/ml NPs (pure drug equimolar)
[9] = A2780, 1.25E+06 ng/ml NPs (pure drug equimolar)
[10] = A2780, 2.50E+04 ng/ml NPs (pure drug equimolar)
[11] = A2780, 2.50E+05 ng/ml NPs (pure drug equimolar)
[12] = A2780, 2.50E+06 ng/ml NPs (pure drug equimolar)
[13] = A2780, 5.00E+03 ng/ml NPs (pure drug equimolar)
[14] = A2780, 5.00E+04 ng/ml NPs (pure drug equimolar)
[15] = A2780, 5.00E+05 ng/ml NPs (pure drug equimolar)
[16] = 1.25E+04 ng/ml NPs (pure drug equimolar)
[17] = 1.25E+06 ng/ml NPs (pure drug equimolar)
[18] = 2.50E+05 ng/ml NPs (pure drug equimolar)
[19] = 2.50E+06 ng/ml NPs (pure drug equimolar)
[20] = 5.00E+03 ng/ml NPs (pure drug equimolar)
[21] = 5.00E+05 ng/ml NPs (pure drug equimolar)
[22] = 1.25E+05 ng/ml NPs (pure drug equimolar)
[23] = 2.50E+04 ng/ml NPs (pure drug equimolar)
[24] = 5.00E+04 ng/ml NPs (pure drug equimolar)
[25] = A549, 1.25E+04 ng/ml NPs (pure drug equimolar)
[26] = A549, 1.25E+05 ng/ml NPs (pure drug equimolar)
[27] = A549, 1.25E+06 ng/ml NPs (pure drug equimolar)
[28] = A549, 2.50E+04 ng/ml NPs (pure drug equimolar)
[29] = A549, 2.50E+05 ng/ml NPs (pure drug equimolar)
[30] = A549, 2.50E+06 ng/ml NPs (pure drug equimolar)
[31] = A549, 5.00E+04 ng/ml NPs (pure drug equimolar)
[32] = MCF-7, 1.25E+04 ng/ml NPs (pure drug equimolar)
[33] = MCF-7, 1.25E+05 ng/ml NPs (pure drug equimolar)
[34] = MCF-7, 1.25E+06 ng/ml NPs (pure drug equimolar)
[35] = MCF-7, 2.50E+04 ng/ml NPs (pure drug equimolar)
[36] = MCF-7, 2.50E+05 ng/ml NPs (pure drug equimolar)
[37] = MCF-7, 2.50E+06 ng/ml NPs (pure drug equimolar)
[38] = MCF-7, 5.00E+03 ng/ml NPs (pure drug equimolar)
[39] = MCF-7, 5.00E+04 ng/ml NPs (pure drug equimolar)
[40] = MCF-7, 5.00E+05 ng/ml NPs (pure drug equimolar)

## COc1cccc2c1C(=O)c1c(O)c3c(c(O)c1C2=O)C[C@@](O)(C(C)=O)C[C@@H]3O[C@H]1C[C@H](N)[C@H](O)[C@H](C)O1 [Dau, daunorubicin]
[1]; [7]
  Average viability: 0.540%
[1]; [8]
  Average viability: 18.312%
[1]; [9]
  Average viability: 60.422%
[1]; [10]
  Average viability: 3.689%
[1]; [11]
  Average viability: 35.542%
[1]; [12]
  Average viability: 54.259%
[1]; [13]
  Average viability: 0.295%
[1]; [14]
  Average viability: 11.600%
[1]; [15]
  Average viability: 60.621%
[2]
  viability at 24 h, 125000 ng/ml NPs (pure drug equimolar): 7.89%
  viability at 24 h, 25000 ng/ml NPs (pure drug equimolar): 2.11%
  viability at 24 h, 50000 ng/ml NPs (pure drug equimolar): 4.14%
[3]; [16]
  Average viability: 2.851%
[3]; [17]
  Average viability: 107.342%
[3]; [18]
  Average viability: 7.579%
[3]; [19]
  Average viability: 111.366%
[3]; [20]
  Average viability: 2.054%
[3]; [21]
  Average viability: 28.287%
[4]; [16]
  Average viability: 43.86%
[4]; [22]
  Average viability: 2.75%
[4]; [17]
  Average viability: 5.35%
[4]; [23]
  Average viability: 1.60%
[4]; [18]
  Average viability: 2.24%
[4]; [24]
  Average viability: 2.88%
[4]; [21]
  Average viability: 3.02%
[5]; [25]
  Average viability: 57.00%
[5]; [26]
  Average viability: 49.55%
[5]; [27]
  Average viability: 0.53%
[5]; [28]
  Average viability: 55.31%
[5]; [29]
  Average viability: 52.82%
[5]; [30]
  Average viability: 65.72%
[5]; A549, 5.00E+03 ng/ml NPs (pure drug equimolar)
  Average viability: 65.72%
[5]; [31]
  Average viability: 50.80%
[5]; A549, 5.00E+05 ng/ml NPs (pure drug equimolar)
  Average viability: 0.60%
[6]; [32]
  Average viability: 1.153%
[6]; [33]
  Average viability: 17.162%
[6]; [34]
  Average viability: 40.867%
[6]; [35]
  Average viability: 1.072%
[6]; [36]
  Average viability: 23.086%
[6]; [37]
  Average viability: 69.450%
[6]; [38]
  Average viability: 1.311%
[6]; [39]
  Average viability: 4.421%
[6]; [40]
  Average viability: 25.325%

## COc1cccc2c1C(=O)c1c(O)c3c(c(O)c1C2=O)C[C@@](O)(C(=O)CO)C[C@@H]3O[C@H]1C[C@H](N)[C@@H](O)[C@H](C)O1 [Epi, epirubicin]
[1]; [7]
  Average viability: 90.784%
[1]; [8]
  Average viability: 69.996%
[1]; [9]
  Average viability: 14.869%
[1]; [10]
  Average viability: 89.24%
[1]; [11]
  Average viability: 58.252%
[1]; [12]
  Average viability: 3.102%
[1]; [13]
  Average viability: 95.203%
[1]; [14]
  Average viability: 83.629%
[1]; [15]
  Average viability: 41.752%
[2]
  viability at 24 h, 125000 ng/ml NPs (pure drug equimolar): 12.7%
  viability at 24 h, 25000 ng/ml NPs (pure drug equimolar): 72.8%
  viability at 24 h, 50000 ng/ml NPs (pure drug equimolar): 17%
[3]; [16]
  Average viability: 98.38%
[3]; [17]
  Average viability: 3.6%
[3]; [18]
  Average viability: 14.93%
[3]; [19]
  Average viability: 4.21%
[3]; [20]
  Average viability: 100.18%
[3]; [21]
  Average viability: 7.96%
[4]; [16]
  Average viability: 65.301%
[4]; [22]
  Average viability: 63.237%
[4]; [17]
  Average viability: 46.66%
[4]; [23]
  Average viability: 63.713%
[4]; [18]
  Average viability: 60.112%
[4]; [19]
  Average viability: 32.352%
[4]; [20]
  Average viability: 81.178%
[4]; [24]
  Average viability: 59.828%
[4]; [21]
  Average viability: 50.916%
[5]; [25]
  Average viability: 95.631%
[5]; [26]
  Average viability: 83.913%
[5]; [27]
  Average viability: 29.508%
[5]; [28]
  Average viability: 88.608%
[5]; [29]
  Average viability: 75.153%
[5]; [30]
  Average viability: 23.423%
[5]; [31]
  Average viability: 74.693%
[6]; [32]
  Average viability: 88.51%
[6]; [33]
  Average viability: 46.97%
[6]; [34]
  Average viability: 5.9%
[6]; [35]
  Average viability: 64.7%
[6]; [36]
  Average viability: 41.35%
[6]; [37]
  Average viability: 1.68%
[6]; [38]
  Average viability: 97.78%
[6]; [39]
  Average viability: 56.01%
[6]; [40]
  Average viability: 31.11%
